Measured values: the supplement of paper PMC11451515

Columns and labels:
Settings in all cases: 48 h
P12-Ichikawa [1] = test: AUC of viability dose-response curve (% viability x log10 dose units); higher = less sensitive
Method in brief: (§1)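 Seeding of medium-adapted leukemia cells was at 500 or 1000 cells/well in 1536-well plates, followed by 48 h at 37°C with library compounds in DMSO at 11 threefold doses from 47 μM to 0.79 nM. CellTiter-Glo One luminescence was normalised per plate to DMSO and cell-free wells and fitted as a four-parameter log-logistic function of log10 dose. Area under the curve was integrated by trapezoidal rule, with curves exceeding full viability scaled and curves failing quality control removed.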

NOMO1 [2] = test: as above
Method in brief: as §1

SEM cells [3] = test: as above
Method in brief: as §1

P12-Ichikawa [4] = test: cell viability relative to DMSO control; higher = less cytotoxic
Method in brief: (§2)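 Viability was expressed as a per-plate percentage of DMSO wells, with cell-free wells as background. Leukemia cells (NOMO1 or SEM at 500 cells/well, P12-Ichikawa at 1000 cells/well) were adapted for at least four passages in each medium and seeded in 1536-well plates (5 μl). Library compounds in DMSO were pin-dosed over an 11-point threefold series from 47 μM to 0.79 nM, and CellTiter-Glo One luminescence was read after 48 h at 37°C.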

NOMO1 [5] = test: as above
Method in brief: as §2

SEM cells [6] = test: as above
Method in brief: as §2

O=C(NCc1ccccc1)[C@H](Cc1ccccc1)NC(=O)[C@H]1O[C@@H]1C(=O)NCCc1ccc(O)cc1
AUC of viability dose-response curve
Settings | NOMO1 [2] | P12-Ichikawa [1] | SEM cells [3]
HPLM + 10% dialyzed FBS | 431 | 468 | 464
RPMI 5 mM glucose + 10% FBS | 459 | 461 | 463
RPMI 5 mM glucose + 10% dialyzed FBS | 425 | 463 | 453

c1cc(OCCN2CCCCC2)cc(-c2n[nH]c3ccc(-c4nc[nH]n4)cc23)c1
cell viability [%]
Settings | NOMO1 [5] | P12-Ichikawa [4] | SEM cells [6]
HPLM + 10% dialyzed FBS, 0.000781 µM | 116 | 109 | 109
HPLM + 10% dialyzed FBS, 0.00234 µM | 120 | 114 | 102
HPLM + 10% dialyzed FBS, 0.00702 µM | 129 | 110 | 113
HPLM + 10% dialyzed FBS, 0.0211 µM | 127 | 116 | 107
HPLM + 10% dialyzed FBS, 0.0632 µM | 137 | 117 | 120
HPLM + 10% dialyzed FBS, 0.19 µM | 103 | 118 | 105
HPLM + 10% dialyzed FBS, 0.569 µM | 127 | 121 | 82.8
HPLM + 10% dialyzed FBS, 1.71 µM | 127 | 116 | 57.6
HPLM + 10% dialyzed FBS, 5.12 µM | 114 | 122 | 99.9
HPLM + 10% dialyzed FBS, 15.4 µM | 122 | 123 | 87.8
HPLM + 10% dialyzed FBS, 46.1 µM | 100 | 124 | 60.4
RPMI 5 mM glucose + 10% FBS, 0.000781 µM | 115 | 112 | 95.9
RPMI 5 mM glucose + 10% FBS, 0.00234 µM | 115 | 111 | 99.9
RPMI 5 mM glucose + 10% FBS, 0.00702 µM | 113 | 118 | 104
RPMI 5 mM glucose + 10% FBS, 0.0211 µM | 105 | 116 | 97.8
RPMI 5 mM glucose + 10% FBS, 0.0632 µM | 103 | 123 | 107
RPMI 5 mM glucose + 10% FBS, 0.19 µM | 122 | 114 | 110
RPMI 5 mM glucose + 10% FBS, 0.569 µM | 112 | 114 | 90.6
RPMI 5 mM glucose + 10% FBS, 1.71 µM | 111 | 132 | 54.4
RPMI 5 mM glucose + 10% FBS, 5.12 µM | 103 | 128 | 97.3
RPMI 5 mM glucose + 10% FBS, 15.4 µM | 104 | 128 | 92.1
RPMI 5 mM glucose + 10% FBS, 46.1 µM | 109 | 111 | 47.6
RPMI 5 mM glucose + 10% dialyzed FBS, 0.000781 µM | 99.5 | 99.4 | 83.9
RPMI 5 mM glucose + 10% dialyzed FBS, 0.00234 µM | 97.1 | 111 | 105
RPMI 5 mM glucose + 10% dialyzed FBS, 0.00702 µM | 101 | 114 | 99.3
RPMI 5 mM glucose + 10% dialyzed FBS, 0.0211 µM | 108 | 19.2 | 119
RPMI 5 mM glucose + 10% dialyzed FBS, 0.0632 µM | 101 | 117 | 126
RPMI 5 mM glucose + 10% dialyzed FBS, 0.19 µM | 109 | 116 | 107
RPMI 5 mM glucose + 10% dialyzed FBS, 0.569 µM | 114 | 121 | 103
RPMI 5 mM glucose + 10% dialyzed FBS, 1.71 µM | 105 | 115 | 48.8
RPMI 5 mM glucose + 10% dialyzed FBS, 5.12 µM | 111 | 108 | 89.4
RPMI 5 mM glucose + 10% dialyzed FBS, 15.4 µM | 101 | 123 | 76.7
RPMI 5 mM glucose + 10% dialyzed FBS, 46.1 µM | 109 | 116 | 53.7

AUC of viability dose-response curve
Settings | HPLM + 10% dialyzed FBS | RPMI 5 mM glucose + 10% FBS | RPMI 5 mM glucose + 10% dialyzed FBS
NOMO1 [2] | 467 | 463 | 468
SEM cells [3] | 412 | 441 | 413

Cl.O[C@@H](CNC[C@H](O)[C@H]1CCc2cc(F)ccc2O1)[C@@H]1CCc2cc(F)ccc2O1
AUC of viability dose-response curve
Settings | NOMO1 [2] | P12-Ichikawa [1] | SEM cells [3]
HPLM + 10% dialyzed FBS | 439 | 465 | 450
RPMI 5 mM glucose + 10% FBS | 446 | 441 | 444
RPMI 5 mM glucose + 10% dialyzed FBS | 415 | 448 | 455

COC1=C(OC)C(=O)C(C/C=C(\C)CC/C=C(\C)CC/C=C(\C)CC/C=C(\C)CC/C=C(\C)CC/C=C(\C)CC/C=C(\C)CC/C=C(\C)CC/C=C(\C)CCC=C(C)C)=C(C)C1=O
cell viability [%], SEM cells [6]
Settings | HPLM + 10% dialyzed FBS | RPMI 5 mM glucose + 10% dialyzed FBS
0.000781 µM | 104 | 104
0.00234 µM | 101 | 129
0.00702 µM | 97.5 | 120
0.0211 µM | 92.4 | 106
0.0632 µM | 129 | 112
0.19 µM | 110 | 124
0.569 µM | 60.3 | 56.4
1.71 µM | 53.3 | 43.4
5.12 µM | 138 | 123
15.4 µM | 128 | 126
46.1 µM | 124 | 120

AUC of viability dose-response curve
Settings | NOMO1 [2] | P12-Ichikawa [1] | SEM cells [3]
HPLM + 10% dialyzed FBS | 461 | 453 | 442
RPMI 5 mM glucose + 10% FBS | 453 | 435 | 469
RPMI 5 mM glucose + 10% dialyzed FBS | 466 | 461 | 456

CCCN[S+](=O)([O-])Nc1ncnc(OCCOc2ncc(Br)cn2)c1-c1ccc(Br)cc1
SEM cells [6], HPLM + 10% dialyzed FBS
Settings | cell viability [%]
0.000781 µM | 125
0.00234 µM | 120
0.00702 µM | 123
0.0211 µM | 120
0.0632 µM | 123
0.19 µM | 137
0.569 µM | 123
1.71 µM | 123
5.12 µM | 124
15.4 µM | 131
46.1 µM | 88.8

AUC of viability dose-response curve
Settings | NOMO1 [2] | P12-Ichikawa [1] | SEM cells [3]
HPLM + 10% dialyzed FBS | 442 | 457 | 470
RPMI 5 mM glucose + 10% FBS | 468 | 431 | 468
RPMI 5 mM glucose + 10% dialyzed FBS | 468 | 452 | 429

CN[C@@H]1CN(C[C@H]1OC)C2=NC3=C(C=C2)C(=O)C(=C\N3C4=NC=CS4)/C(O)=O
AUC of viability dose-response curve
Settings | NOMO1 [2] | P12-Ichikawa [1] | SEM cells [3]
HPLM + 10% dialyzed FBS | 454 | 426 | 396
RPMI 5 mM glucose + 10% FBS | 455 | 386 | 347
RPMI 5 mM glucose + 10% dialyzed FBS | 451 | 389 | 363

Nc1cccc(-c2cc3c(Oc4cccc(O)c4)ncnc3[nH]2)c1
cell viability [%]
Settings | HPLM + 10% dialyzed FBS | RPMI 5 mM glucose + 10% FBS | RPMI 5 mM glucose + 10% dialyzed FBS
P12-Ichikawa [4], 0.000781 µM | 124 | – | –
P12-Ichikawa [4], 0.00234 µM | 121 | – | –
P12-Ichikawa [4], 0.00702 µM | 123 | – | –
P12-Ichikawa [4], 0.0211 µM | 114 | – | –
P12-Ichikawa [4], 0.0632 µM | 122 | – | –
P12-Ichikawa [4], 0.19 µM | 114 | – | –
P12-Ichikawa [4], 0.569 µM | 117 | – | –
P12-Ichikawa [4], 1.71 µM | 106 | – | –
P12-Ichikawa [4], 5.12 µM | 105 | – | –
P12-Ichikawa [4], 15.4 µM | 60.5 | – | –
P12-Ichikawa [4], 46.1 µM | 15.1 | – | –
SEM cells [6], 0.000781 µM | – | 70.7 | 69.1
SEM cells [6], 0.00234 µM | – | 122 | 123
SEM cells [6], 0.00702 µM | – | 132 | 132
SEM cells [6], 0.0211 µM | – | 143 | 125
SEM cells [6], 0.0632 µM | – | 145 | 131
SEM cells [6], 0.19 µM | – | 123 | 116
SEM cells [6], 0.569 µM | – | 132 | 133
SEM cells [6], 1.71 µM | – | 121 | 121
SEM cells [6], 5.12 µM | – | 88.8 | 80.4
SEM cells [6], 15.4 µM | – | 62.3 | 56
SEM cells [6], 46.1 µM | – | 9.75 | 13.4

AUC of viability dose-response curve
Settings | NOMO1 [2] | P12-Ichikawa [1] | SEM cells [3]
HPLM + 10% dialyzed FBS | 445 | 423 | 414
RPMI 5 mM glucose + 10% FBS | 463 | 431 | 415
RPMI 5 mM glucose + 10% dialyzed FBS | 460 | 436 | 414

CCC(c1ccc(O)cc1)C(CC)c1ccc(O)cc1 (centres undefined)
AUC of viability dose-response curve
Settings | NOMO1 [2] | P12-Ichikawa [1] | SEM cells [3]
HPLM + 10% dialyzed FBS | 428 | 452 | 459
RPMI 5 mM glucose + 10% FBS | 448 | 464 | 457
RPMI 5 mM glucose + 10% dialyzed FBS | 463 | 466 | 466
